Source: PubChem BioAssay AID1918955 (Molecular Pharmacology Branch, DTP, NCI, 2023)

System: NCI/ADR-RES complex spheroid viability
Test: Anticancer human tumor NCI/ADR-RES cell line growth inhibition;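 note: spheroids exposed to compounds for 7 days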;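 for viability, T/C: 100% = DMSO vehicle treated spheroids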
Conditions: for IC50: curve of first compound; for viability, T/C: stronger effect = lower value
Text: Multicellular complex tumor spheroid response to LSD1 Inhibitor Iadademstat in combination with a variety of drugs and investigational agents in selected tumor cell lines
The current study was undertaken to assess response to LSD1 inhibitors in combination with standard-of-care drugs and investigational agents in solid tumor complex spheroid models as well as in the K-562 leukemia. Complex spheroids include a stromal component modeled by human endothelial cells (HUVEC) and fibroblasts modeled by human mesenchymal stem cells (MSCs). The concentration ranges selected for each drug and investigational agent were based upon clinically achievable concentrations if the clinical Cmax of the agent was known.
Compounds. The drugs and investigational agents used in this study are listed on Table 1. All of the agents used, including staurosporine (NSC755774) and gemcitabine (NSC613327), were obtained from the Developmental Therapeutics Program, NCI. FDA-approved anticancer drugs are available from the NCI at http://dtp.nci.nih.gov/branches/dscb/oncology_drugset_explanation.html. Drugs and investigational agents were >95% pure by proton nuclear magnetic resonance (NMR) and liquid chromatography/mass spectrometry (LC/MS). Stock solutions were prepared at 400x in DMSO, stored at -70 degrees C, and diluted in fresh medium prior to their use. The final concentration of DMSO in cell culture wells never exceeded 0.25% (v/v). The FDA-approved anticancer drug set is available from the Developmental Therapeutics Program at https://dtp.cancer.gov/organization/dscb/obtaining/available_plates.htm. All drugs and investigational agents were tested over a range starting from a high concentration at or near the clinical Cmax and decreasing in half-log increments. If the clinical Cmax for an agent had not been determined, the highest concentration tested was 10 microM.
Cell Lines. The patient-derived cancer cell (PDC) lines: 292921-168-R-J2-PDC, K24384-001-R-PDC, and 521955-158-R2-J5-PDC pancreatic carcinomas, 556581-035-R-J1 ovarian carcinoma, 324938-238-R-J1-PDC, 855422-203-R-J1-PDC and 883617-216-R-J1-PDC urothelial bladder carcinomas, 743489-274-T-PDC renal cell carcinoma, 138582-R-J1 Merkel cell tumor, K60290-347-R-J1 and K57222-313-R-J1-PDC glioblastomas, 653999-131-R-J2-PDC, LG0703-F948-PDC, and 349418-098-R-PDC non-small cell lung carcinomas, 885512-296-R-J2-PDC, 171881-019-R-J1-PDC breast carcinomas and 186277-243-T-J2-PDC and 233499-124-R-J2-PDC colon carcinomas were obtained from the NCI Patient-Derived Models Repository (PDMR, https://pdmr.cancer.gov). The established cell lines NCI/ADR-RES (RRID:CVCL_14520 and OVCAR-5 (RRID:CVCL_1628) ovarian carcinomas, 786-O (RRID:CVCL_1051) and A498 (RRID:CVCL_A498) renal cell carcinoma, NCI-H211 (ATCC, cat. CRL-5824; RRID:CVCL_1529), NCI-H196 (ATCC, cat. CRL-5823, RRID:CVCL_1509), SW 1271 (ATCC, cat. CRL-2177, RRID:CVCL_1716) and NCI-H1876 (ATCC, cat. CRL-5902, RRID:CVCL_1503) small cell lung carcinomas, MDA-MB-231 (RRID:CVCL_0062) and MDA-MB-468 (RRID:CVCL_0419)breast carcinomas (10-12). Pooled donor human umbilical vein endothelial cells (HUVEC, Lonza, cat. CC-2519) and human mesenchymal stem cells (hMSC, Lonza, cat. PT-2501) were purchased from Lonza (Walkersville, MD).
Cell Culture. All cells were maintained in an incubator at 37 degrees C and 5% CO2 with 95% humidity. The PDC lines were cultured according to standard operating procedures established by the NCI PDMR (https://pdmr.cancer.gov). Briefly all PDCs were thawed and cultured in Matrigel-coated flasks prepared with a working solution of 1X Ham's F-12 nutrient mix, without supplementation (Invitrogen, Waltham, MA, cat. 11765054), 100 U/mL penicillin-streptomycin (Invitrogen, cat. 15140122), and 2.5% Matrigel (Corning Inc., Corning, NY, cat. 354248) for the first three passages. […]

[1] = second compound 0.1 µM, first compound 0.00316 µM
[2] = second compound 0.1 µM, first compound 0.01 µM
[3] = second compound 0.1 µM, first compound 0.0316 µM
[4] = second compound 0.1 µM, first compound 0.1 µM
[5] = second compound 0.316 µM, first compound 0.00316 µM
[6] = second compound 0.316 µM, first compound 0.01 µM
[7] = second compound 0.316 µM, first compound 0.0316 µM
[8] = second compound 0.316 µM, first compound 0.1 µM
[9] = second compound 1 µM, first compound 0.00316 µM
[10] = second compound 1 µM, first compound 0.01 µM
[11] = second compound 1 µM, first compound 0.0316 µM
[12] = second compound 1 µM, first compound 0.1 µM
[13] = second compound 3.16 µM, first compound 0.00316 µM
[14] = second compound 3.16 µM, first compound 0.01 µM
[15] = second compound 3.16 µM, first compound 0.0316 µM
[16] = second compound 3.16 µM, first compound 0.1 µM
[17] = second compound 10 µM, first compound 0.00316 µM
[18] = second compound 10 µM, first compound 0.01 µM
[19] = second compound 10 µM, first compound 0.0316 µM
[20] = second compound 10 µM, first compound 0.1 µM

## CC[C@@]1(O)C(=O)OCc2c1cc1n(c2=O)Cc2cc3c(CN(C)C)c(O)ccc3nc2-1 + NC1CC1c1ccc(-c2cccc(O)c2)cc1
Second compound 0.1 µM
  IC50: 8.38 nM
Second compound 0.316 µM
  IC50: 8.87 nM
Second compound 1 µM
  IC50: 10.5 nM
Second compound 3.16 µM
  IC50: 13.3 nM
Second compound 10 µM
  IC50: 13.2 nM
Second compound 0.1 µM, first compound 0.000316 µM
  viability, T/C: 110%
Second compound 0.1 µM, first compound 0.001 µM
  viability, T/C: 101%
[1]
  viability, T/C: 84.9%
[2]
  viability, T/C: 43.3%
[3]
  viability, T/C: 13.4%
[4]
  viability, T/C: 2.49%
Second compound 0.316 µM, first compound 0.000316 µM
  viability, T/C: 111%
Second compound 0.316 µM, first compound 0.001 µM
  viability, T/C: 103%
[5]
  viability, T/C: 86.2%
[6]
  viability, T/C: 45.2%
[7]
  viability, T/C: 14.9%
[8]
  viability, T/C: 2.48%
Second compound 1 µM, first compound 0.000316 µM
  viability, T/C: 101%
Second compound 1 µM, first compound 0.001 µM
  viability, T/C: 98.9%
[9]
  viability, T/C: 83.5%
[10]
  viability, T/C: 52.2%
[11]
  viability, T/C: 16.3%
[12]
  viability, T/C: 2.84%
Second compound 3.16 µM, first compound 0.000316 µM
  viability, T/C: 97%
Second compound 3.16 µM, first compound 0.001 µM
  viability, T/C: 94%
[13]
  viability, T/C: 81.2%
[14]
  viability, T/C: 60.1%
[15]
  viability, T/C: 23.7%
[16]
  viability, T/C: 4.48%
Second compound 10 µM, first compound 0.000316 µM
  viability, T/C: 95.1%
Second compound 10 µM, first compound 0.001 µM
  viability, T/C: 82.3%
[17]
  viability, T/C: 74.2%
[18]
  viability, T/C: 57.1%
[19]
  viability, T/C: 31.4%
[20]
  viability, T/C: 9.59%

## COc1cc(C2c3cc4c(cc3C(OC3OC5COC(C)OC5C(O)C3O)C3COC(=O)C23)OCO4)cc(OC)c1O (stereo not given) + NC1CC1c1ccc(-c2cccc(O)c2)cc1
Second compound 0.1 µM
  IC50: > 3000 nM
Second compound 0.316 µM
  IC50: > 3000 nM
Second compound 1 µM
  IC50: > 3000 nM
Second compound 3.16 µM
  IC50: > 3000 nM
Second compound 10 µM
  IC50: > 3000 nM
Second compound 0.1 µM, first compound 0.00949 µM
  viability, T/C: 104%
Second compound 0.1 µM, first compound 0.03 µM
  viability, T/C: 112%
Second compound 0.1 µM, first compound 0.0949 µM
  viability, T/C: 106%
Second compound 0.1 µM, first compound 0.3 µM
  viability, T/C: 101%
Second compound 0.1 µM, first compound 0.949 µM
  viability, T/C: 100%
Second compound 0.1 µM, first compound 3 µM
  viability, T/C: 90.4%
Second compound 0.316 µM, first compound 0.00949 µM
  viability, T/C: 113%
Second compound 0.316 µM, first compound 0.03 µM
  viability, T/C: 104%
Second compound 0.316 µM, first compound 0.0949 µM
  viability, T/C: 106%
Second compound 0.316 µM, first compound 0.3 µM
  viability, T/C: 104%
Second compound 0.316 µM, first compound 0.949 µM
  viability, T/C: 103%
Second compound 0.316 µM, first compound 3 µM
  viability, T/C: 92.6%
Second compound 1 µM, first compound 0.00949 µM
  viability, T/C: 102%
Second compound 1 µM, first compound 0.03 µM
  viability, T/C: 101%
Second compound 1 µM, first compound 0.0949 µM
  viability, T/C: 99.6%
Second compound 1 µM, first compound 0.3 µM
  viability, T/C: 96.5%
Second compound 1 µM, first compound 0.949 µM
  viability, T/C: 92.7%
Second compound 1 µM, first compound 3 µM
  viability, T/C: 92.4%
Second compound 3.16 µM, first compound 0.00949 µM
  viability, T/C: 98.5%
Second compound 3.16 µM, first compound 0.03 µM
  viability, T/C: 100%
Second compound 3.16 µM, first compound 0.0949 µM
  viability, T/C: 95.2%
Second compound 3.16 µM, first compound 0.3 µM
  viability, T/C: 95.7%
Second compound 3.16 µM, first compound 0.949 µM
  viability, T/C: 94.2%
Second compound 3.16 µM, first compound 3 µM
  viability, T/C: 84.9%
Second compound 10 µM, first compound 0.00949 µM
  viability, T/C: 84.6%
Second compound 10 µM, first compound 0.03 µM
  viability, T/C: 81%
Second compound 10 µM, first compound 0.0949 µM
  viability, T/C: 79.3%
Second compound 10 µM, first compound 0.3 µM
  viability, T/C: 80.2%
Second compound 10 µM, first compound 0.949 µM
  viability, T/C: 78.6%
Second compound 10 µM, first compound 3 µM
  viability, T/C: 71.1%

## Nc1ncn(C2CC(O)C(CO)O2)c(=O)n1 (stereo not given) + NC1CC1c1ccc(-c2cccc(O)c2)cc1
Second compound 0.1 µM
  IC50: 49.3 nM
Second compound 0.316 µM
  IC50: 49.1 nM
Second compound 1 µM
  IC50: 38.4 nM
Second compound 3.16 µM
  IC50: 46 nM
Second compound 10 µM
  IC50: 25.4 nM
[1]
  viability, T/C: 90.5%
[2]
  viability, T/C: 79.4%
[3]
  viability, T/C: 61.5%
[4]
  viability, T/C: 32.8%
Second compound 0.1 µM, first compound 0.316 µM
  viability, T/C: 19.9%
Second compound 0.1 µM, first compound 1 µM
  viability, T/C: 13.6%
[5]
  viability, T/C: 93.3%
[6]
  viability, T/C: 83%
[7]
  viability, T/C: 62%
[8]
  viability, T/C: 31.3%
Second compound 0.316 µM, first compound 0.316 µM
  viability, T/C: 17.8%
Second compound 0.316 µM, first compound 1 µM
  viability, T/C: 12.5%
[9]
  viability, T/C: 88.5%
[10]
  viability, T/C: 77.5%
[11]
  viability, T/C: 53.4%
[12]
  viability, T/C: 30.4%
Second compound 1 µM, first compound 0.316 µM
  viability, T/C: 15.8%
Second compound 1 µM, first compound 1 µM
  viability, T/C: 10.8%
[13]
  viability, T/C: 94.6%
[14]
  viability, T/C: 78.3%
[15]
  viability, T/C: 61%
[16]
  viability, T/C: 32%
Second compound 3.16 µM, first compound 0.316 µM
  viability, T/C: 15%
Second compound 3.16 µM, first compound 1 µM
  viability, T/C: 12.4%
[17]
  viability, T/C: 73.5%
[18]
  viability, T/C: 63.7%
[19]
  viability, T/C: 45.5%
[20]
  viability, T/C: 32.2%
Second compound 10 µM, first compound 0.316 µM
  viability, T/C: 16.1%
Second compound 10 µM, first compound 1 µM
  viability, T/C: 11.8%
